Like-named read-outs stand apart in the source and are kept apart here.
How the values were obtained:
[1] = system: MCF-7 cells; assay: cells; assay type: cell-based; details: for Killing of MCF-7 cells at the highest investigated concentration (in words): 10 μM, compounds with weak hormonal activity; for Emax / cytotoxicity at 10 µM / inhibition at 1 µM: Homo sapiens, MCF7, 96 h; for Emax: read-out: Maximal Agonism (% of E2); for cytotoxicity at 10 µM / Maximal Cell Kill (% fraction of dead cells): 10 μmol/l; for cytotoxicity at 10 µM: read-out: Maximal Cell Kill (% fraction of dead cells); for inhibition at 1 µM: read-out: Antagonism at 1 μM (% of full antagonism)
Method: Evaluation of Estrogenic and Antiestrogenic Properties of Compounds in MCF-7 Cell Growth Experiments in Vitro
For experiments involving hormone or anti-hormone treatment, the cells in exponential growth phase were precultivated in the absence of estradiol for one day. […] After the incubation period the medium was removed. The exposure to study drugs was started immediately by adding fresh medium with 5% stripped serum. Half of the cells were grown with estradiol, half without estradiol. Study compounds (dissolved in ethanol in 0.01 M concentration and diluted with the growth medium as appropriate) were added. The final concentrations of the compounds were 1, 10, and 100 nM, and 1 and 10 μM. The cells were incubated for four days.
This method allows evaluation of estrogenicity based on the ability of the compounds to stimulate the growth of the estrogen-dependent cells in the absence of estradiol.
Estrogenicity was estimated by comparing the maximal growth stimulus (at any concentration) of study compound as percent from growth stimulus by estradiol (100% stimulus). […] At high concentrations molecules may also show toxicity. Toxicity was estimated as the fraction of dead cells (i.e. 100% means that all cells have died during the exposure).

[2] = system: immature rat uterus; assay: 3 day uterotropic assay in immature female rats; details: Table 3
Method: Estimation of Estrogenicity and Antiestrogenicity in Vivo
The results have been shown in Table 3 both as per cent of estrogen stimulation (100%), and as inhibition of estrogen action (full inhibition is 100%). The values are given at two dose levels, low i.e. 3-5 mg/kg and high i.e. 10-50 mg/kg. Estrogenic activity can be estimated also after a 4 weeks' treatment of ovariectomized rats based on the uterine size.

[3] = Overall hormonal profile summarised from Tables 2, 3 and 4
[4] = system: ovariectomized (OVX) rats; assay: Serum cholesterol level in ovariectomized (OVX) rats after 4 weeks dosing; assay type: in vivo, rat; details: for Effect on cholesterol (in words): OVX rats, Table 4; for Cholesterol level (mmol/l) in serum: OVX rat, 4 weeks dosing
Text: Estimation of Effects to Cholesterol and Bone
(§1) Compounds were given p.o. to female rats for 4 or 5 weeks daily. At the end a blood sample was taken. Serum was separated by centrifugation and frozen until analyzed for total amount of cholesterol. Bone samples were taken from vertebra and tibia. Physical strength of the bones was studied as described by Peng et al, 1994.

[5] = system: ovariectomized rats; assay: Maximal load of femoral neck (cantilever bending test) in ovariectomized rats after 4 weeks dosing; assay type: in vivo, rat; details: OVX rats
Method: as §1, with “1994. The assessments of the bone included:” for “1994.”
Mechanical Testing of Bones
The mechanical testing of bones was carried out by materials testing machine, constructed in-house at Oulu University (Technical Services Dcpartment of the Medical Faculty). The testing machine is based on lever arm principle. One end of a steel lever is fixed. The pressing rod and the driving motor are connected to the lever arm with a moment ratio of 12.5 cm/50 cm=¼. As a driving motor a linear actuator (SEY 10 Magnetic Elektromotoren AG, Switzerland) is used to obtain constant vertical movement (0.62 cm/s). The interchangeable compression head is mounted on the pressing rod for different tests transmitting compressive force to the specimen, and moving at a constant speed of 0.155 mm/s up to a maximal load capacity of 1200 N. The pressing rod is guided via an axial ball bearing to keep the movement vertical. Compressive force is measured by a temperature-compensated force sensor, which is attached to the stationary part of the compression stage. The measuring electronics include sensor calibration and adjustments.
The maximal load on the femoral neck was measured by the cantilever bending test. The supporter for the bone was a thick polymethyl methacrylate plate in which several holes of different sizes were drilled. On one side of each hole a groove was engraved for the […] trochanter of the femur. The femur was cut exactly between the middle and lower third of the shaft. The bone was inserted perpendicularly and tightly into a suitable hole on the supporter. The lesser trochanter of each bone touched the surface of the plate. This procedure allowed rapid and stable fixation of the bone without using any additional embedding materials. […]

[6] = system: intact and castrated male rats; assay: Weight of the prostate gland in intact and castrated male rats after 4 weeks daily treatment; assay type: in vivo, rat; details: for Weight of the prostate gland (g) mean and sd: 4 weeks daily
[7] = system: ovariectomized rats; assay: Ash weight of tibial epiphyses in ovariectomized rats after 4 weeks dosing; assay type: in vivo, rat; details: OVX rats
Text: as §1, with “1994. The assessments of the bone included:” for “1994.”
Ash Weight of Tibial Epiphyses
Epiphyses of one tibia was carefully prepared and burned. Samples were burned to remove water and organic material. Ash weight relates to the mineral content of the bone. In addition, bone samples were taken to study the histomorphometry. In some cases the bone formation was studied by injecting tetracycline (50 mg/kg i.p. 10 days before autopsy) and calcein (20 mg/kg i.p. 3 days before autopsy). The method is based on permanent binding of tetracycline into growing bone and its detection by fluorescence (Peng et al, 1994).

[8] = system: ovariectomized rats; assay: Size of the uterus after 4 weeks treatment of ovariectomized rats; assay type: in vivo, rat
[9] = system: DMBA-induced rat mammary gland cancer; assay: Antitumor activity in DMBA-induced rat mammary gland cancer model; assay type: in vivo
Method: Estimation of Antitumor Activity in Vivo
Antitumor activity was estimated by using DMBA (dimethylbenz[a] anthracene) model. One single peroral dose of DMBA (12 mg) initiates mammary gland carcinogenesis. New compounds were administered for 5 weeks when palpable tumors appeared. Size of the tumors and number of new tumors were carefully estimated once a week until termination. The model has been described in detail by Kangas et al, 1986. The growth of the tumors was measured once a week. All tumors were classified according to their growth properties to progressing, stable and regressing ones. Disappeared tumors were separately calculated. The tumors were considered to be progressing, if the tumor volume grew more than 8-fold during the 5 weeks dosing period, and regressing if the tumor volume decreased to one fourth or less from the volume in the beginning. If tumor volume changed less or remained unchanged, the tumors were considered to be stable.

[10] = Without estradiol (E2), maximal growth stimulus at any concentration, 4 days
[11] = 15 mg/kg p.o. daily for 5 weeks

CN(C)CCOc1ccc(/C(=C(/CCCl)c2ccccc2)c2ccc(F)cc2)cc1 [No. 1, (E)-(2-{4-[4-Chloro-1-(4-fluorophenyl)-2-phenylbut-1-enyl]phenoxy}ethyl)-dimethylamine]
Killing of MCF-7 cells at the highest investigated concentration (in words) [1]: kill MCF-7 cells (human breast cancer cells) effectively | Estrogenic action in vitro (in words) ([1]; in vitro, Table 2): no estrogenic action in vitro | Estrogenic action in vivo / in the uterus (in words) [2]: weak estrogen in vivo

CN(C)CCOc1ccc(/C(=C(/CCCl)c2ccccc2)c2ccc(Cl)cc2)cc1 [No. 3, (E)-(2-{4-[4-Chloro-1-(4-chlorophenyl)-2-phenylbut-1-enyl]phenoxy}ethyl)-dimethylamine]
Estrogenic and antiestrogenic action (in words) [3]: weak estrogenic and no antiestrogenic action | Killing of MCF-7 cells at the highest investigated concentration (in words) [1]: kill MCF-7 cells (human breast cancer cells) effectively | Effect on cholesterol (in words) [4]: decrease cholesterol

OCCOc1cccc(/C(=C(/CCCl)c2ccccc2)c2ccccc2)c1 [No. 18, (Z)-2-[3-(4-Chloro-1,2-diphenyl-but-1-enyl)phenoxy]ethanol]
Estrogenic and antiestrogenic action (in words) [3]: weak estrogenic and no antiestrogenic action | Emax [1, 10]: 30%

OCCOCCOc1ccc(/C(=C(/CCCl)c2ccccc2)c2ccccc2)cc1 [No. 19, (Z)-2-{2-[4-(4-Chloro-1,2-diphenylbut-1-enyl)phenoxy]ethoxy}ethanol]
Maximal load (N) of femoral neck ([5]; 1.0 mg/kg p.o.): 81.6 ± 7.9 N | Maximal load (N) of femoral neck ([5]; 5.0 mg/kg p.o.): 85.7 ± 17.0 N | Weight of the prostate gland (g) mean and sd ([6]; 0.5 mg/kg to castrated rats): 0.59 ± 0.07 g | Weight of the prostate gland (g) mean and sd ([6]; 0.5 mg/kg, intact male rats): 2.66 ± 0.21 g | Weight of the prostate gland (g) mean and sd ([6]; 5.0 mg/kg to castrated rats): 0.62 ± 0.07 g | Weight of the prostate gland (g) mean and sd ([6]; 5.0 mg/kg, intact male rats): 1.58 ± 0.5 g | Estrogenic action on the weight of the prostate gland (in words) ([6]; at doses which are active in DMBA-induced mammary tumor model): does not show any estrogenic action | Ash weight (mg) of tibial epiphyses ([7]; 1.0 mg/kg p.o.): 34.8 ± 1.3 mg | Ash weight (mg) of tibial epiphyses ([7]; 5.0 mg/kg p.o.): 34.9 ± 1.9 mg | Estrogenic and antiestrogenic action (in words) [3]: weak estrogenic and no antiestrogenic action | Uterine size ([8]; 1.0 mg/kg peroral daily): 0.192 ± 0.029 g | Uterine size ([8]; 5.0 mg/kg peroral daily): 0.221 ± 0.023 g | Killing of MCF-7 cells at the highest investigated concentration (in words) [1]: kill MCF-7 cells (human breast cancer cells) effectively | cytotoxicity at 10 µM ([1]; With estradiol (E2)): 50% | cytotoxicity at 10 µM ([1]; Without estradiol (E2)): 14% | inhibition at 1 µM ([1]; With estradiol (E2), 1 μM): 21% | Emax [1, 10]: 14% | Cholesterol level (mmol/l) in serum ([4]; 0.3 mg/kg): 3.6 ± 0.4 mmol/L | Cholesterol level (mmol/l) in serum ([4]; 10 mg/kg): 3.9 ± 0.6 mmol/L | Effect on cholesterol (in words) [4]: decrease cholesterol | Disappeared tumors (per cent of total tumor number) ([9]; 3 mg/kg p.o. daily for 5 weeks): 20% | Growing tumors (per cent of total tumor number) ([9]; 3 mg/kg p.o. daily for 5 weeks): 20% | Regressing tumors (per cent of total tumor number) ([9]; 3 mg/kg p.o. daily for 5 weeks): 40% | Stable tumors (per cent of total tumor number) ([9]; 3 mg/kg p.o. daily for 5 weeks): 20% | Disappeared tumors (per cent of total tumor number) [9, 11]: 14% | Growing tumors (per cent of total tumor number) [9, 11]: 14% | Regressing tumors (per cent of total tumor number) [9, 11]: 57% | Stable tumors (per cent of total tumor number) [9, 11]: 14% | Anticancer efficacy in vivo compared with tamoxifen and toremifene (in words) ([9]; DMBA-induced rat mammary tumor model, even at very low doses): more effective anticancer drug in vivo

OCC(O)COc1ccc(/C(=C(/CCCl)c2ccccc2)c2ccccc2)cc1 (centres unmarked) [No. 20, (Z)-3-[4-(4-Chloro-1,2-diphenyl-but-1-enyl)phenoxy]propane-1,2-diol]
Maximal load (N) of femoral neck ([5]; 3.0 mg/kg p.o.): 81.7 ± 15.2 N | Ash weight (mg) of tibial epiphyses ([7]; 3.0 mg/kg p.o.): 35.0 ± 3.2 mg | Estrogenic and antiestrogenic action (in words) [3]: weak estrogenic and no antiestrogenic action | Uterine size ([8]; 1.0 mg/kg peroral daily): 0.133 ± 0.032 g | cytotoxicity at 10 µM ([1]; With estradiol (E2)): 60% | cytotoxicity at 10 µM ([1]; Without estradiol (E2)): 5% | inhibition at 1 µM ([1]; With estradiol (E2), 1 μM): 25% | Emax [1, 10]: 8% | Cholesterol level (mmol/l) in serum ([4]; 1 mg/kg): 3.3 ± 0.6 mmol/L | Cholesterol level (mmol/l) in serum ([4]; 5 mg/kg): 2.3 ± 0.4 mmol/L | Effect on cholesterol (in words) [4]: decrease cholesterol

CN(C)CCSc1ccc(/C(=C(/CCCl)c2ccccc2)c2ccccc2)cc1 [No. 32, (Z)-1-[4-(2-Dimethylaminoethylsulfanyl)phenyl]-1,2-diphenyl-4-chloro-but-1-ene]
Estrogenic and antiestrogenic action (in words) [3]: weak estrogenic and no antiestrogenic action | cytotoxicity at 10 µM ([1]; With estradiol (E2)): 90% | cytotoxicity at 10 µM ([1]; Without estradiol (E2)): 86% | inhibition at 1 µM ([1]; With estradiol (E2), 1 μM): 0% | Emax [1, 10]: 11%

CN(C)CCOc1cccc(/C(=C(/CCCl)c2ccccc2)c2ccccc2)c1 [No. 33, (Z)-{2-[3-(4-Chloro-1,2-diphenylbut-1-enyl)phenoxy]ethyl}dimethylamine]
Emax [1, 10]: 20% | Cytotoxic action (in words) ([1]; Table 2): weak | Effect on cholesterol (in words) [4]: decrease cholesterol

OCCSc1ccc(/C(=C(/CCCl)c2ccccc2)c2ccccc2)cc1 [No. 36, (Z)-2-[4-(4-Chloro-1,2-diphenyl-but-1-enyl)-phenylsulfanyl]ethanol]
Estrogenic and antiestrogenic action (in words) [3]: weak estrogenic and no antiestrogenic action | cytotoxicity at 10 µM ([1]; With estradiol (E2)): 37% | cytotoxicity at 10 µM ([1]; Without estradiol (E2)): 17% | inhibition at 1 µM ([1]; With estradiol (E2), 1 μM): 13% | Emax [1, 10]: 8%

C#CCN(C)CCOc1ccc(/C(=C(/CCCl)c2ccccc2)c2ccccc2)cc1 [No. 44, (Z)-{2-[4-(4-Chloro-1,2-diphenylbut-1-enyl)phenoxy]ethyl}-methylprop-2-ynylamine]
Estrogenic and antiestrogenic action (in words) [3]: weak estrogenic and no antiestrogenic action | cytotoxicity at 10 µM ([1]; With estradiol (E2)): 95% | cytotoxicity at 10 µM ([1]; Without estradiol (E2)): 78% | inhibition at 1 µM ([1]; With estradiol (E2), 1 μM): 8% | Emax [1, 10]: 24%

E-3-(4-Chloro-1-{4-[2-(2-hydroxyethoxy)ethoxy]phenyl}-2-phenylbut-1-enyl)phenol [Example 11]
Estrogenic and antiestrogenic action (in words) [3]: weak estrogenic and no antiestrogenic action | Antagonism at 1 μM (% of full antagonism) ([1]; With estradiol (E2), 1 μM): 0 % of full antagonism | Maximal Cell Kill (% fraction of dead cells) ([1]; With estradiol (E2)): 55 % fraction of dead cells | Maximal Cell Kill (% fraction of dead cells) ([1]; Without estradiol (E2)): 26 % fraction of dead cells | Maximal Agonism (% of E2) [1, 10]: 14 % of E2
